Measurements published in the NIST ThermoML archive (doi:10.1016/j.jct.2016.09.031).
± gives the expanded uncertainty stated by the source.

Experiments:
[1] = molar heat capacity at constant pressure; mn = molality of the nth substance listed, in mol/kg; settings: 298.15 K, 100 kPa, Liquid, Flow calorimetry
[2] = molar heat capacity at constant pressure; settings: 298.15 K; 101.33 kPa; Liquid; Flow calorimetry

[Cl-].[Cs+] [cesium chloride] + O
molar heat capacity at constant pressure ([1]; m1 = 0.2644): 74.19 ± 1.5 J/K/mol
molar heat capacity at constant pressure ([1]; m1 = 0.5336): 73.52 ± 1.5 J/K/mol
molar heat capacity at constant pressure ([1]; m1 = 1.066): 72.48 ± 1.5 J/K/mol
molar heat capacity at constant pressure ([1]; m1 = 2.018): 70.13 ± 1.4 J/K/mol
molar heat capacity at constant pressure ([1]; m1 = 3.02): 68.3 ± 1.4 J/K/mol
molar heat capacity at constant pressure ([1]; m1 = 3.877): 67.71 ± 1.4 J/K/mol
molar heat capacity at constant pressure ([1]; m1 = 5.674): 66.01 ± 1.3 J/K/mol
molar heat capacity at constant pressure ([1]; m1 = 6.822): 65.63 ± 1.3 J/K/mol

[Cl-].[Rb+] [rubidium chloride] + O
molar heat capacity at constant pressure ([1]; m1 = 0.4938): 73.89 ± 1.5 J/K/mol
molar heat capacity at constant pressure ([1]; m1 = 0.8703): 73.2 ± 1.5 J/K/mol
molar heat capacity at constant pressure ([1]; m1 = 1.515): 71.66 ± 1.4 J/K/mol
molar heat capacity at constant pressure ([1]; m1 = 2.41): 69.91 ± 1.4 J/K/mol
molar heat capacity at constant pressure ([1]; m1 = 3.388): 68.46 ± 1.4 J/K/mol
molar heat capacity at constant pressure ([1]; m1 = 4.213): 67.56 ± 1.4 J/K/mol
molar heat capacity at constant pressure ([1]; m1 = 4.888): 67.01 ± 1.3 J/K/mol
molar heat capacity at constant pressure ([1]; m1 = 5.84): 66.18 ± 1.3 J/K/mol

[Cl-].[Na+] [sodium chloride] + O
molar heat capacity at constant pressure ([1]; m1 = 2.05): 72.32 ± 1.5 J/K/mol

O [water]
molar heat capacity at constant pressure [2]: 75.11 ± 1.5 J/K/mol

O [water] + [Cl-].[Cs+]
molar heat capacity at constant pressure ([1]; m2 = 0): 75.11 ± 1.5 J/K/mol

O [water] + [Cl-].[Rb+]
molar heat capacity at constant pressure ([1]; m2 = 0): 75.11 ± 1.5 J/K/mol
